The results in this text go back to patent US20160279164A1, “High-Molecular Weight Conjugate Of Resorcinol Derivatives” (Nippon Kayaku Kabushiki Kaisha, priority 2006, published 2016).

The test deals with mouse colon cancer Colon26. As to the kind of experiment: Anti-tumor effect on mice transplanted with the mouse colon cancer Colon26. In kind it is in vivo. The settings on record: 5 consecutive days, female CDF1 mice. The source says: Tumor of mouse colon cancer, Colon26, maintained by serial subcutaneous subculture in BALB/cA mice, was minced into about 2-mm square blocks, and the blocks were transplanted subcutaneously on the dorsal part of a female CDF1 mice with a trocar. On the 7th day after tumor transplantation, the high-molecular weight conjugate of a resorcinol derivative (compound 1) of the present invention, and as a control, the included resorcinol derivative, 5-(2,4-dihydroxy-5-isopropyl-phenyl)-4-(4-methoxy-phenyl)-2,4-dihydro-[1,2,4]triazol-3-one), were administered intravenously to the mouse tail vein. Compound 1 of the present invention was dissolved in a 5% glucose injectable solution, and was administered once. The resorcinol derivative (the included compound) used as the control, was dissolved in DMSO, and TWEEN80 was added thereto, and then the mixture was diluted with a 5% glucose injectable solution. The dilution was administered once a day for 5 consecutive days. After the administration, the major diameter (L mm) and the minor diameter (W mm) of the tumor were measured regularly, and the tumor volume was calculated by the formula: (L×W^2)/2. Based on the tumor volume of the administration initiation day, the average relative tumor volume for each measurement day was determined (Table 1).

Consider `COc1ccc(-n2c(-c3cc(C(C)C)c(O)cc3O)n[nH]c2=O)cc1` [Included compound, 5-(2,4-dihydroxy-5-isopropyl-phenyl)-4-(4-methoxy-phenyl)-2,4-dihydro-[1,2,4]triazol-3-one], for which the “average relative tumor volume” value is, setting by setting: (day 0 after administration, 50 mg/kg/day i.v.) 1.0; (day 0 after administration, 100 mg/kg/day i.v.) 1.0; (day 2 after administration, 50 mg/kg/day i.v.) 1.6; (day 2 after administration, 100 mg/kg/day i.v.) 1.1; (day 3 after administration, 50 mg/kg/day i.v.) 1.6; (day 3 after administration, 100 mg/kg/day i.v.) 0.7. Further, the “average relative tumor volume” value was 2.5 (day 5 after administration, 50 mg/kg/day i.v.); 1.0 (day 5 after administration, 100 mg/kg/day i.v.); 2.5 (day 7 after administration, 50 mg/kg/day i.v.); 3.3 (day 7 after administration, 100 mg/kg/day i.v.); 6.7 (day 9 after administration, 50 mg/kg/day i.v.); 5.0 (day 9 after administration, 100 mg/kg/day i.v.). Also, the “average relative tumor volume” value runs as follows: (day 12 after administration, 50 mg/kg/day i.v.) 10; (day 12 after administration, 100 mg/kg/day i.v.) 11; (day 14 after administration, 50 mg/kg/day i.v.) 13; (day 14 after administration, 100 mg/kg/day i.v.) 12.
